The text below walks through data of patent publication US11530221B2, “Pyrimido[4,5-d]pyrimidin-2-one derivatives as protein kinase inhibitors” (KOREA INSTITUTE OF SCIENCE AND TECHNOLOGY, priority 2019, dated 2022).

Read-outs that look alike come from different tables or passages of the source. Square brackets hold non-standard residues; d marks the D form. Peptide text beside a SMILES is read from it. * marks the point of attachment. X1 = Cc1ccc(Nc2ncc3c(n2)N(C)C(=O)N(c2cc(C(=O)*)ccc2C)C3)cn1; Chg = N[C@H](C(=O)O)C1CCCCC1; Aze = O=C(O)[C@@H]1CCN1; Nva = CCC[C@H](N)C(=O)O; Aib = CC(C)(N)C(=O)O Some results are limits rather than exact numbers.

Format in all cases: biochemical
In one assay the target is p38a/MAPK14 (Homo sapiens, UniProt Q16539). Briefly: IC50 inhibitory activity against p38a/MAPK14 kinase. As to conditions: read-out: p38a/MAPK14 IC50. How it is done:
(§1) IC50 values were calculated by measuring the inhibitory activity against LCK, c-Src, p38a/MAPK14, ABL1, DDR1 and FGR kinases of the compounds of the present invention.

In another assay the target is ABL1 (Homo sapiens, UniProt P00519). Briefly: IC50 inhibitory activity against ABL1 kinase. How it is done: as §1
Another assay concerns the target LCK (Homo sapiens, UniProt P06239). The experiment in a line: IC50 inhibitory activity against LCK kinase. Here is the method:
as §1

The next assay deals with c-Src (Homo sapiens, UniProt P12931). Briefly: IC50 inhibitory activity against c-Src kinase. Here is the method:
as §1

A further assay deals with ABL1 (T315I) (Homo sapiens, UniProt P00519, T315I). The experiment in a line: IC50 inhibitory activity against ABL1 (T315I) kinase. As to conditions: read-out: ABL1 (T315I) IC50. Here is the method:
as §1

Chain of p38a/MAPK14 (Q16539 whole entry): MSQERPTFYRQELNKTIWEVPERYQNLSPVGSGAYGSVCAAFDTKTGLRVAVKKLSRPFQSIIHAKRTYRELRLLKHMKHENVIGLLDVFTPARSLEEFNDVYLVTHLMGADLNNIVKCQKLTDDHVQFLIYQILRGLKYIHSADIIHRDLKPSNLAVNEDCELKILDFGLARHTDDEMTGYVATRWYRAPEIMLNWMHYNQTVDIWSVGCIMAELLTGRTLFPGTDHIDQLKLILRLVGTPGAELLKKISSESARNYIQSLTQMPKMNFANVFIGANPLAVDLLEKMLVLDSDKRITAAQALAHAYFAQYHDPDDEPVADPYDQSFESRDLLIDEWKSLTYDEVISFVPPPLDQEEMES
Chain of LCK (P06239 whole entry): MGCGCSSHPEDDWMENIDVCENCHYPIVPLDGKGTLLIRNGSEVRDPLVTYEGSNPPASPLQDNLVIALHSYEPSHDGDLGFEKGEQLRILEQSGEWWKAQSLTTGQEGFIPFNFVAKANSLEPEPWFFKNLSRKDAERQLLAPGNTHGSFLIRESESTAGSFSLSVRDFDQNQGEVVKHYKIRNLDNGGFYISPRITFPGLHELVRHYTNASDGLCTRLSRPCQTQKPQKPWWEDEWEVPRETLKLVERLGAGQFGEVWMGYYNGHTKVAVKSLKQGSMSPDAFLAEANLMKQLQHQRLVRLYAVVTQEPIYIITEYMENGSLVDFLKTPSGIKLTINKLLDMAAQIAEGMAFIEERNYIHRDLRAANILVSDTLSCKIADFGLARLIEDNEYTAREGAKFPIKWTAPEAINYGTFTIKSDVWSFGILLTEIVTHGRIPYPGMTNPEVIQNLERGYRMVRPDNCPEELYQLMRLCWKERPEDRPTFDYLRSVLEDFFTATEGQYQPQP
Chain of c-Src (P12931 whole entry): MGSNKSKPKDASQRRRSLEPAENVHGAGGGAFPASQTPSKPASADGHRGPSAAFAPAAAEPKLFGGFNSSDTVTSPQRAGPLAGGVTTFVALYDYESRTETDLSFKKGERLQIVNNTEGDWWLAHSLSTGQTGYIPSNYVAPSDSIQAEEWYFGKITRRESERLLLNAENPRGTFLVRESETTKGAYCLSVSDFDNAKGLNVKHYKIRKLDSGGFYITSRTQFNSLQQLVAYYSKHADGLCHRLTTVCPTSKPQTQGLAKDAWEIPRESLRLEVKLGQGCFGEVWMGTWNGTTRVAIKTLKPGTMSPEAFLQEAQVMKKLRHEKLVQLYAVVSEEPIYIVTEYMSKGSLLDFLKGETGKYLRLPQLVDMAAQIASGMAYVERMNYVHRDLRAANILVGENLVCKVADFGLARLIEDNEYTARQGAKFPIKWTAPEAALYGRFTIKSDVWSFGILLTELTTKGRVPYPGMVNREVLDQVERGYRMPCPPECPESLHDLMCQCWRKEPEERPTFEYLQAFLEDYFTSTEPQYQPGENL

Consider `Cc1ccc(Nc2ncc3c(n2)N(C)C(=O)N(c2cc(NC(=O)[C@H](C)NC(=O)c4ccc([N+](=O)[O-])c(OCC(C)C)c4)ccc2C)C3)cn1` [Example 53, (S)-3-isobutoxy-N-(1-((4-methyl-3-(1-methyl-7-((6-methylpyridin-3-yl)amino)-2-oxo-1,4-dihydropyrimido[4,5-d]pyrimidin-3(2H)-yl)phenyl)amino)-2-oxopropan-2-yl)-4-nitrobenzamide], for which the IC50 on p38a/MAPK14 and on ABL1 (read-out: ABL1 IC50) was greater than 600 nM each time.

For the compound `Cc1ccc(Nc2ncc3c(n2)N(C)C(=O)N(c2cc(NC(=O)[C@H](Cc4c[nH]c5ccccc45)NC(=O)c4ccc([N+](=O)[O-])c(OCC(C)C)c4)ccc2C)C3)cn1` [Example 55], at ABL1 (read-out: ABL1 IC50), the IC50 is greater than 600 nM.

Take `Cc1ccc(Nc2ncc3c(n2)N(C)C(=O)N(c2cc(C(=O)N[C@@H](C)C(=O)N4CCC[C@H]4C(=O)NC(C)(C)C(=O)N[C@@H](CC(C)C)C(=O)N(C)C)ccc2C)C3)cn1` [Example 17, (S)—N-(1-(((S)-1-(dimethylamino)-4-methyl-1-oxopentan-2-yl)amino)-2-methyl-1-oxopropan-2-yl)-1-((4-methyl-3-(1-methyl-7-((6-methylpyridin-3-yl)amino)-2-oxo-1,4-dihydropyrimido[4,5-d]pyrimidin-3(2H)-yl)benzoyl)-L-alanyl)pyrrolidine-2-carboxamide] (X1-AP[Aib]L-NMe2): the IC50 at LCK (read-out: LCK IC50) was 1 to 200 nM; at c-Src (read-out: c-Src IC50), 200 to 400 nM; on ABL1 (read-out: ABL1 IC50), 1 to 200 nM.

Regarding `Cc1ccc(Nc2ncc3c(n2)N(C)C(=O)N(c2cc(C(=O)N4C[C@@H](C(=O)NCCc5c[nH]c6ccccc56)[C@H](C(=O)NCc5ccc(Cl)cc5)C4)ccc2C)C3)cn1` [Example 48, (3S,4S)—N^3-(2-(1H-indol-3-yl)ethyl)-N^4-(4-chlorobenzyl)-1-(4-methyl-3-(1-methyl-7-((6-methylpyridin-3-yl)amino)-2-oxo-1,4-dihydropyrimido[4,5-d]pyrimidin-3(2H)-yl)benzoyl)pyrrolidine-3,4-dicarboxamide], the IC50 at LCK (read-out: LCK IC50) is 1 to 200 nM; on c-Src (read-out: c-Src IC50), 1 to 200 nM; on p38a/MAPK14, 400 to 600 nM; at ABL1 (read-out: ABL1 IC50) it was 1 to 200 nM.

Take `Cc1ccc(Nc2ncc3c(n2)N(C)C(=O)N(c2cc(NC(=O)[C@H](CC(C)C)NC(=O)c4ccc([N+](=O)[O-])c(OCC(C)C)c4)ccc2C)C3)cn1` [Example 54, (S)-3-isobutoxy-N-(4-methyl-1-((4-methyl-3-(1-methyl-7-((6-methylpyridin-3-yl)amino)-2-oxo-1,4-dihydropyrimido[4,5-d]pyrimidin-3(2H)-yl)phenyl)amino)-1-oxopentan-2-yl)-4-nitrobenzamide]: the IC50 is greater than 600 nM on p38a/MAPK14, 1 to 200 nM at ABL1 (read-out: ABL1 IC50) and greater than 600 nM at ABL1 (T315I).

Regarding `Cc1ccc(Nc2ncc3c(n2)N(C)C(=O)N(c2cc(C(=O)NCC(=O)N4CCC[C@H]4C(=O)NC(C)(C)C(=O)N[C@@H](CC(C)C)C(=O)N(C)C)ccc2C)C3)cn1` [Example 18, (S)—N-(1-(((S)-1-(dimethylamino)-4-methyl-1-oxopentan-2-yl)amino)-2-methyl-1-oxopropan-2-yl)-1-((4-methyl-3-(1-methyl-7-((6-methylpyridin-3-yl)amino)-2-oxo-1,4-dihydropyrimido[4,5-d]pyrimidin-3(2H)-yl)benzoyl)glycyl)pyrrolidine-2-carboxamide] (X1-GP[Aib]L-NMe2), the results for the IC50 against LCK, against c-Src and against ABL1 were 200 to 400 nM, 400 to 600 nM and 1 to 200 nM, respectively.

As for `CC[C@H](C)[C@H](NC(=O)c1ccc(C)c(N2Cc3cnc(Nc4ccc(C)nc4)nc3N(C)C2=O)c1)C(=O)N1CCC[C@H]1C(=O)NC(C)(C)C(=O)N[C@@H](CC(C)C)C(=O)N(C)C` [Example 16, (S)—N-(1-(((S)-1-(dimethylamino)-4-methyl-1-oxopentan-2-yl)amino)-2-methyl-1-oxopropan-2-yl)-1-((4-methyl-3-(1-methyl-7-((6-methylpyridin-3-yl)amino)-2-oxo-1,4-dihydropyrimido[4,5-d]pyrimidin-3(2H)-yl)benzoyl)-L-isoleucyl)pyrrolidine-2-carboxamide] (X1-IP[Aib]L-NMe2), the results for the IC50 at LCK (read-out: LCK IC50), at c-Src (read-out: c-Src IC50) and on ABL1 (read-out: ABL1 IC50) were 1 to 200 nM, 200 to 400 nM and 1 to 200 nM, respectively.

`Cc1ccc(Nc2ncc3c(n2)N(C)C(=O)N(c2cc(NC(=O)c4ccc([N+](=O)[O-])c(OCCc5c[nH]c6ccccc56)c4)ccc2C)C3)cn1` [Example 50, 3-(2-(1H-indol-3-yl)ethoxy)-N-(4-methyl-3-(1-methyl-7-((6-methylpyridin-3-yl)amino)-2-oxo-1,4-dihydropyrimido[4,5-d]pyrimidin-3(2H)-yl)phenyl)-4-nitrobenzamide]: the IC50 at p38a/MAPK14 lay within 200 to 400 nM; on ABL1 (read-out: ABL1 IC50) it was 1 to 200 nM.

As to `COc1ccc(CCOc2cc(C(=O)Nc3ccc(C)c(N4Cc5cnc(Nc6ccc(C)nc6)nc5N(C)C4=O)c3)ccc2[N+](=O)[O-])cc1` [Example 51, 3-(4-methoxyphenethoxy)-N-(4-methyl-3-(1-methyl-7-((6-methylpyridin-3-yl)amino)-2-oxo-1,4-dihydropyrimido[4,5-d]pyrimidin-3(2H)-yl)phenyl)-4-nitrobenzamide], the IC50 at LCK (read-out: LCK IC50), on p38a/MAPK14 and at ABL1 (read-out: ABL1 IC50) was 1 to 200 nM in each case.

For the compound `Cc1ccc(Nc2ncc3c(n2)N(C)C(=O)N(c2cc(C(=O)N[C@H](C(=O)N4CCC[C@H]4C(=O)NC(C)(C)C(=O)N[C@@H](CC(C)C)C(=O)N(C)C)C4CCCCC4)ccc2C)C3)cn1` [Example 19, (S)-1-((S)-2-cyclohexyl-2-((4-methyl-3-(1-methyl-7-((6-methylpyridin-3-yl)amino)-2-oxo-1,4-dihydropyrimido[4,5-d]pyrimidin-3(2H)-yl)benzamido)acetyl)-N-(1-(((S)-1-dimethylamino)-4-methyl-1-oxopentan-2-yl)amino)-2-methyl-1-oxopropan-2-yl]pyrrolidine-2-carboxamide] (X1-[Chg]P[Aib]L-NMe2), the IC50 against LCK was 1 to 200 nM; on c-Src it was 400 to 600 nM; on ABL1, 200 to 400 nM.

As for `Cc1ccc(Nc2ncc3c(n2)N(C)C(=O)N(c2cc(C(=O)N[C@H](C(=O)N4CC[C@H]4C(=O)NC(C)(C)C(=O)N[C@@H](CC(C)C)C(=O)N(C)C)C(C)C)ccc2C)C3)cn1` [Example 15, (S)—N-(1-(((S)-1-(dimethylamino)-4-methyl-1-oxopentan-2-yl)amino)-2-methyl-1-oxopropan-2-yl)-1-((4-methyl-3-(1-methyl-7-((6-methylpyridin-3-yl)amino)-2-oxo-1,4-dihydropyrimido[4,5-d]pyrimidin-3(2H)-yl)benzoyl)-L-valyl)azetidine-2-carboxamide] (X1-V[Aze][Aib]L-NMe2), the IC50 is 200 to 400 nM against LCK, greater than 600 nM on c-Src and 1 to 200 nM at ABL1.

In the case of `COc1ccc(CCOc2cc(C(=O)N[C@@H](C)C(=O)Nc3ccc(C)c(N4Cc5cnc(Nc6ccc(C)nc6)nc5N(C)C4=O)c3)ccc2[N+](=O)[O-])cc1` [Example 56], the IC50 is greater than 600 nM on p38a/MAPK14 and 1 to 200 nM at ABL1 (read-out: ABL1 IC50).

Turning to `Cc1ccc(Nc2ncc3c(n2)N(C)C(=O)N(c2cc(NC(=O)[C@@H]4CN(C(=O)OCC(Cl)(Cl)Cl)C[C@H]4C(=O)NCc4ccc(Cl)cc4)ccc2C)C3)cn1` [Example 57, 2,2,2-trichloroethyl (3S,4S)-3-((4-chlorobenzyl)carbamoyl)-4-((4-methyl-3-(1-methyl-7-((6-methylpyridin-3-yl)amino)-2-oxo-1,4-dihydropyrimido[4,5-d]pyrimidin-3(2H)-yl)phenyl)carbamoyl)pyrrolidine-1-carboxylate], the IC50 on LCK (read-out: LCK IC50), on c-Src (read-out: c-Src IC50), at p38a/MAPK14 and at ABL1 (read-out: ABL1 IC50) was 1 to 200 nM in each case.

With `CCC[C@H](NC(=O)c1ccc(C)c(N2Cc3cnc(Nc4ccc(C)nc4)nc3N(C)C2=O)c1)C(=O)N1CCC[C@H]1C(=O)NC(C)(C)C(=O)N[C@@H](CC(C)C)C(=O)N(C)C` [Example 21, (S)—N-(1-(((S)-1-(dimethylamino)-4-methyl-1-oxopentan-2-yl)amino)-2-methyl-1-oxopropan-2-yl)-1-((S)-2-(4-methyl-3-(1-methyl-7-((6-methylpyridin-3-yl)amino)-2-oxo-1,4-dihydropyrimido[4,5-d]pyrimidin-3(2H)-yl)benzamido)pentanoyl)pyrrolidine-2-carboxamide] (X1-[Nva]P[Aib]L-NMe2), the IC50 against LCK lay within 1 to 200 nM; on c-Src it was 400 to 600 nM; at ABL1, 1 to 200 nM.

`Cc1ccc(Nc2ncc3c(n2)N(C)C(=O)N(c2cc(C(=O)N[C@@H](CC(C)C)C(=O)N4CCC[C@H]4C(=O)NC(C)(C)C(=O)N[C@@H](CC(C)C)C(=O)N(C)C)ccc2C)C3)cn1` [Example 20, (S)—N-(1-(((S)-1-(dimethylamino)-4-methyl-1-oxopentan-2-yl)amino)-2-methyl-1-oxopropan-2-yl)-1-((4-methyl-3-(1-methyl-7-((6-methylpyridin-3-yl)amino)-2-oxo-1,4-dihydropyrimido[4,5-d]pyrimidin-3(2H)-yl)benzoyl)-L-lucyl)pyrrolidine-2-carboxamide] (X1-LP[Aib]L-NMe2): the IC50 against LCK, on c-Src and on ABL1 was 1 to 200 nM each time.

In the case of `Cc1ccc(Nc2ncc3c(n2)N(C)C(=O)N(c2cc(C(=O)N4C[C@@H](C(=O)NCc5ccccc5)[C@H](C(=O)NCc5ccc(Cl)cc5)C4)ccc2C)C3)cn1` [Example 47, (3S,4S)—N^3-benzyl-N^4-(4-chlorobenzyl)-1-(4-methyl-3-(1-methyl-7-((6-methylpyridin-3-yl)amino)-2-oxo-1,4-dihydropyrimido[4,5-d]pyrimidin-3(2H)-yl)benzoyl)pyrrolidine-3,4-dicarboxamide], the IC50 at LCK (read-out: LCK IC50), on c-Src (read-out: c-Src IC50), on p38a/MAPK14 and at ABL1 (read-out: ABL1 IC50) was 1 to 200 nM in each case.
